Assay results from patent US11878975B2, “Substituted indole compounds useful as TLR inhibitors” (BRISTOL-MYERS SQUIBB COMPANY, priority 2017, dated 2024).

How the values were obtained:
Type in all cases: cell-based
[1] = target: T1, human TLR8 (Homo sapiens, UniProt Q9NR97); assay: TLR8 inhibition reporter assay (HEK-Blue cells, SEAP reporter, R848 stimulation); settings: HEK-Blue cells overexpressing human TLR8, SEAP reporter, R848 15.9 μM
T1 construct: host or cells: HEK-Blue cells
T1 sequence (Q9NR97 27-1041): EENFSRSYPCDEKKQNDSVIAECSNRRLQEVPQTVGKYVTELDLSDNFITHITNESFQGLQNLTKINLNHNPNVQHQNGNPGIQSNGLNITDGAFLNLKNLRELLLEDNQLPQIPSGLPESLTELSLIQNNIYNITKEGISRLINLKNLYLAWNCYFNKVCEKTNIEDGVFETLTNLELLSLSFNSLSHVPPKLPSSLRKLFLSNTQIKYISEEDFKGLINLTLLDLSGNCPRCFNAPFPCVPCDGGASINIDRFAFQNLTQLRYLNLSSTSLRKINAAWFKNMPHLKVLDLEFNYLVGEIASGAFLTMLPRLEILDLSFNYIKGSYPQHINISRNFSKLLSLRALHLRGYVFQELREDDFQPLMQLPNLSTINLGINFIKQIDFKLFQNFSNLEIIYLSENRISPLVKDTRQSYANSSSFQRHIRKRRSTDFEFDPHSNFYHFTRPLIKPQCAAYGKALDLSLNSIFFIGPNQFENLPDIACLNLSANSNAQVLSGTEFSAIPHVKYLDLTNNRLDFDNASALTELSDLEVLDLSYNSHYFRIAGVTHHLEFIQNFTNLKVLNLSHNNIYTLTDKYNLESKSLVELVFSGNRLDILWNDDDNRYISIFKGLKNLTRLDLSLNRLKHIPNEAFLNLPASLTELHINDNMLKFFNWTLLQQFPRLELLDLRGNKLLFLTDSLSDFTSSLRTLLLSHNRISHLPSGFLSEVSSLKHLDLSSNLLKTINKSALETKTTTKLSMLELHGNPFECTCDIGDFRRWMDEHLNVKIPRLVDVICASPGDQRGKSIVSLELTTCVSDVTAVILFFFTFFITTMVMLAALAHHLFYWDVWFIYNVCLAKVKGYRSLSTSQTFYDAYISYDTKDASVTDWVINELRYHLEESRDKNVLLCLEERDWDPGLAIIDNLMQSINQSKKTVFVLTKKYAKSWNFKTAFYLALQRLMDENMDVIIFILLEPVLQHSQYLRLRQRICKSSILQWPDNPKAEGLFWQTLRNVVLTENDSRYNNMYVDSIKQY
Protocol: (§1) TLR7/8/9 Inhibition Reporter Assays
(§2) HEK-Blue™-cells (Invivogen) overexpressing human TLR7, TLR8 or TLR9 receptors were used for screening inhibitors of these receptors using an inducible SEAP (secreted embryonic alkaline phosphatase) reporter gene under the control of the IFN-β minimal promoter fused to five NF-κB and AP-1-binding sites. Briefly, cells are seeded into Greiner 384 well plates (15000 cells per well for TLR7, 20,000 for TLR8 and 25,000 for TLR9) and then treated with test compounds in DMSO to yield a final dose response concentration range of 0.05 nM-50 μM. After a 30 minute compound pre-treatment al room temperature, the cells are then stimulated with a TLR7 ligand (gardiquimod at a final concentration of 7.5 μM), TLR8 ligand (R848 at a final concentration of 15.9 μM) or TLR9 ligand (ODN2006 at a final concentration of 5 nM) to activate NF-κB and AP-1 which induce the production of SEAP. After a 22 hour incubation at 37° C., 5% CO2, SEAP levels are determined with the addition of HEK-Blue™ Detection reagent (Invivogen), a cell culture medium that allows for detection of SEAP, according to manufacturer's specifications. The percent inhibition is determined as the % reduction in the HEK-Blue signal present in wells treated with agonist plus DMSO alone compared to wells treated with a known inhibitor.

[2] = target: T2, human TLR9 (Homo sapiens, UniProt Q9NR96); assay: TLR9 inhibition reporter assay (HEK-Blue cells, SEAP reporter, ODN2006 stimulation); settings: HEK-Blue cells overexpressing human TLR9, SEAP reporter, ODN2006 5 nM
T2 construct: host or cells: HEK-Blue cells
T2 sequence (Q9NR96 26-1032): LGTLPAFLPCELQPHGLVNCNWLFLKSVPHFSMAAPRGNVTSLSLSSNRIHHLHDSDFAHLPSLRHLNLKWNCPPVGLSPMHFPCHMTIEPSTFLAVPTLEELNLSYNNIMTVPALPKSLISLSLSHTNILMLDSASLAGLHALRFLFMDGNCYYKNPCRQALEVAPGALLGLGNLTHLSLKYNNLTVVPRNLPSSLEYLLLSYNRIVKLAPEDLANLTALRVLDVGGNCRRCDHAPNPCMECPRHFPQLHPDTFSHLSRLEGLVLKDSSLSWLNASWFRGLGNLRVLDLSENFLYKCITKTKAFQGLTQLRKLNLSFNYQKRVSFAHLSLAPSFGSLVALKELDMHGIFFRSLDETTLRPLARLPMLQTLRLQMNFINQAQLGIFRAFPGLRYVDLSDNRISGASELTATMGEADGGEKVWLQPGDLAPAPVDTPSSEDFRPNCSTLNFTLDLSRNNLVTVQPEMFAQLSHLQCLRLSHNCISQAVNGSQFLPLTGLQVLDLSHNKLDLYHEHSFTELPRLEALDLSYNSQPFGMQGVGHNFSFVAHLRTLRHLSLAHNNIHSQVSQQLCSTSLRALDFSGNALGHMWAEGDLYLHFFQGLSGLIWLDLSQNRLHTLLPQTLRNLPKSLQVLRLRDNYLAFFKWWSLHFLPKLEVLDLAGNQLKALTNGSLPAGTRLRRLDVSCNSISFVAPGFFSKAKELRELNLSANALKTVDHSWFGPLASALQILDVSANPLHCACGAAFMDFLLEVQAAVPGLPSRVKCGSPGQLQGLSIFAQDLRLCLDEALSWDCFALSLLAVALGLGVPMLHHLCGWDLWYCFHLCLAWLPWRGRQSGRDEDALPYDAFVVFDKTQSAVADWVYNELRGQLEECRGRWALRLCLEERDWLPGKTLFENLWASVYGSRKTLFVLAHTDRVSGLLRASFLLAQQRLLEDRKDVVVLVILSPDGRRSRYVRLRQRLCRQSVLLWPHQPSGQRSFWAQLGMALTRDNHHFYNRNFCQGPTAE
Protocol: as §1, §2

[3] = target: T3, human TLR7 (Homo sapiens, UniProt Q9NYK1); assay: TLR7 inhibition reporter assay (HEK-Blue cells, SEAP reporter, gardiquimod stimulation); settings: HEK-Blue cells overexpressing human TLR7, SEAP reporter, gardiquimod 7.5 μM
T3 construct: host or cells: HEK-Blue cells
T3 sequence (Q9NYK1 27-1049): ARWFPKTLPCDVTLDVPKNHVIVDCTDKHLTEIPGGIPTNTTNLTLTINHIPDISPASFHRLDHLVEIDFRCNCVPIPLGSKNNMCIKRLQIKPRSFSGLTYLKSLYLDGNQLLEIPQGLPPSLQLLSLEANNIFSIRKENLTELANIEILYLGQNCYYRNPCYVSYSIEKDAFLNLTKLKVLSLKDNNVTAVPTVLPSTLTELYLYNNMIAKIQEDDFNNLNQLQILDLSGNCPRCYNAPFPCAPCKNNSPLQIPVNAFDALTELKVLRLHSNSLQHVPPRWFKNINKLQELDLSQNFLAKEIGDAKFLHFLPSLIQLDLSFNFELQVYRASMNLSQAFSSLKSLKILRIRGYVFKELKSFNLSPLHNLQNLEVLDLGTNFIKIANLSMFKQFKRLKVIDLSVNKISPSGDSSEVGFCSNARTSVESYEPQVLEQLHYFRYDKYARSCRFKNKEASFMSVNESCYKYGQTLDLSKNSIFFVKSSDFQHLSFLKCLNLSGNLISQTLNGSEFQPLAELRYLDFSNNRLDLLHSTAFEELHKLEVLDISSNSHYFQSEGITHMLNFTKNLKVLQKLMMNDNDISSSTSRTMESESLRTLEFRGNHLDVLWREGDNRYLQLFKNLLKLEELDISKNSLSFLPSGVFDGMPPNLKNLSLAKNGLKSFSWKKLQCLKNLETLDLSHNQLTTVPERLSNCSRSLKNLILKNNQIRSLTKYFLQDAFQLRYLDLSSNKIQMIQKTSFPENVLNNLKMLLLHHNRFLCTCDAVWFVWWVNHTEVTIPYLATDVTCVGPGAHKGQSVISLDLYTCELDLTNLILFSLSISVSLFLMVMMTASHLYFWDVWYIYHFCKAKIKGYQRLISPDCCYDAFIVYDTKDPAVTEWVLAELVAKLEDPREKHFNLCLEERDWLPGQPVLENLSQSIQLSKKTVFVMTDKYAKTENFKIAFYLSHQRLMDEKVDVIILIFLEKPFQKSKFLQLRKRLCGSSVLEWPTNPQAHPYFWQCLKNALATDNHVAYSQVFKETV
Protocol: as §1, §2

Structure (SMILES) | IC50 [1] [µM] | IC50 [2] [µM] | IC50 [3] [µM]
COc1cc(-c2[nH]c3ccc(C4CCC(N(C)CC(F)F)CC4)cc3c2C(C)C)cn2ncnc12 (stereo not drawn) [Example 81] | 0.104 | 25.5 | 0.017
Cc1c(-c2[nH]c3ccc(C4CCC(N5CCOCC5)CC4)cc3c2C(C)C)cn2ncnc2c1C (single isomer, unassigned) [Example 93] | 0.0038 | 3.8 | 0.003
Cc1cc(-c2[nH]c3ccc(C4CN(CC(C)(C)O)CCO4)cc3c2C(C)C)cn2ncnc12 (single isomer, unassigned) [Example 356] | 0.0046 | 6.99 | 0.006
CCc1c(-c2ccnc(C)c2)[nH]c2ccc(CC3CCCN3)cc12 (stereo not drawn) [Example 420] | 0.038 | 1.06 | 0.306
CNC(=O)CN1CCOC(c2ccc3[nH]c(-c4cc(C)nc(C)c4)c(C(C)C)c3c2)C1 (stereo not drawn) [Example 325] | 0.021 | 36.8 | 0.029
COCCN1CCN(C2CCC(c3ccc4[nH]c(-c5cc(OC)c6ncnn6c5)c(C(C)C)c4c3)CC2)CC1 (single isomer, unassigned) [Example 38] | 0.0021 | 2.09 | 0.001
COc1cc(-c2[nH]c3ccc(C4CCCN(C)C4)cc3c2C(C)C)cn2ncnc12 (stereo not drawn) [Example 241] | 0.0019 | 1.3 | 0.00053
Cc1c(-c2[nH]c3ccc(C4CN(C(C)C)C4)cc3c2C(C)C)cn(C)c(=O)c1C [Example 482] | 0.0092 | 10.3 | 0.034
Cc1c(-c2[nH]c3ccc(C4CCC(N5CC6(COC6)C5)CC4)cc3c2C(C)C)cn2ncnc2c1C (stereo not drawn) [Example 113] | 0.00079 | 3.25 | 0.001
COc1cc(-c2[nH]c3ccc(C4CN(C(C)C)CCO4)cc3c2C(C)C)cn2ncnc12 (stereo not drawn) [Example 302] | 0.00042 | 2.6 | 0.002
COc1cc(-c2[nH]c3ccc(C4CC(N(C)CCS(C)(=O)=O)C4)cc3c2C(C)C)cn2ncnc12 (stereo not drawn) [Example 587] | 0.0057 | 21.3 | 0.005
Cc1cc(-c2[nH]c3ccc(C4CCC(N(C)CC(=O)N(C)C)CC4)cc3c2C(C)C)cn2ncnc12 (single isomer, unassigned) [Example 177, 2-((4-(3-isopropyl-2-(8-methyl-[1,2,4]triazolo[1,5-a]pyridin-6-yl)-1H-indol-5-yl)cyclohexyl)(methyl)amino)-N,N-dimethylacetamide] | 0.024 | 7.02 | 0.005
Cc1c(-c2[nH]c3ccc(C4CN(Cc5c[nH]nn5)C4)cc3c2C(C)C)cn2ncnc2c1C [Example 551] | 0.0032 | 3.35 | 0.002
Cc1cc(-c2[nH]c3ccc(C4CCC(N(C)C(=O)CN(C)C)CC4)cc3c2C(C)C)cn2ncnc12 (stereo not drawn) [Example 148] | 0.0077 | 2.44 | 0.001
COc1cc(-c2[nH]c3ccc(C4CCC(N(C)C(C)C)C4)cc3c2C(C)C)cn2ncnc12 (single isomer, unassigned) [Example 276, N-isopropyl-3-(3-isopropyl-2-(8-methoxy-[1,2,4]triazolo[1,5-a]pyridin-6-yl)-1H-indol-5-yl)-N-methylcyclopentan-1-amine] | 0.0009 | 0.468 | 0.00064
COCCN1CCOC(c2ccc3[nH]c(-c4cc(OC)c5ncnn5c4)c(C(C)C)c3c2)C1 (stereo not drawn) [Example 345] | 0.012 | 8.61 | 0.006
Cc1cc(-c2[nH]c3ccc(C4CCCNC4)cc3c2C(C)C)cc(C)n1 (stereo not drawn) [Example 186] | 0.0036 | 0.28 | 0.004
COc1cc(-c2[nH]c3ccc(C4CCC(NC5COC5)CC4)cc3c2C(C)C)cn2ncnc12 (stereo not drawn) [Example 64] | 0.00087 | 3.03 | 0.00015
Cc1c(-c2[nH]c3ccc(C4CN(Cc5ncn(C)n5)C4)cc3c2C(C)C)cn2cnnc2c1C [Example 537] | 0.04 | 27.8 | 0.051
Cc1cc(-c2[nH]c3ccc(C4CN5CCC4CC5)cc3c2C(C)C)cn2ncnc12 (stereo not drawn) [Example 364] | 0.0038 | 1.05 | 0.00064
Cc1cc(-c2[nH]c3ccc(CCN4CCCC(F)(F)C4)cc3c2C(C)C)cn(C)c1=O [Example 404] | 0.031 | > 50 | 0.05
